Here are results for one compound from paper PMC10451668, “Natural Acetogenins, Chatenaytrienins-1, -2, -3 and -4, Mitochondrial Potential Uncouplers and Autophagy Inducers—Promising Anticancer Agents” (Antioxidants, 2023).

Common to all, as to type: cell-based, human
One data set concerns Jurkat tumor cell line. In words: Assessment of cytochrome c loss (FlowCellect Cytochrome c Kit). Particulars: compound at CC50, incubation 3 h, anti-cytochrome c-FITC. As for the experimental part: Quantification of cytochrome c release from mitochondria in apoptotic cells was presented to detect the mitochondrial pathway of apoptosis in cells using flow cytometry with the FlowCellect™ Cytochrome c Kit (FCCH100110). For this, cells were treated with FITC-conjugated antibodies against cytochrome c and control anti-IgG1-FITC, together with the use of an optimized fixation procedure, permeabilization, and blocking buffer (Luminex®, USA). […] Jurkat cells were incubated for 4 h with the synthesized substances at a concentration corresponding to their 24-h CC50 in a culture plate and assessed using the NovoCyte Penteon Flow Cytometer System (Agilent, 5301 Stevens Creek Blvd., Santa Clara, CA, USA). The obtained data were processed using NovoExpress® software (ACEA).

Data set [1] concerns Jurkat cells. The data set can be described thus: Detection of mitodamage: mitochondrial membrane potential and apoptosis (MitoSense Red, annexin V, 7-AAD). Conditions: compound at CC50, 4 h. From the text:
The use of reagents MitoSense Red, annexin V, and 7-AAD in the Millipore FlowCellect™ MitoDamage Kit allowed us to gain information on early, mid, and late apoptosis with one simple assay. […] After this time, the cells were dissociated using an accutase solution, stained, and analyzed using the NovoCyte Penteon Flow Cytometer System (Agilent, 5301 Stevens Creek Blvd., Santa Clara, CA, USA), according to the manufacturer’s protocols for the FlowCellect™ MitoDamage Kit and FlowCellect™ Oxidative Stress Characterization Kit (Merck).
Detection of mitochondrial potential dissipation using MitoSense Red, annexin V, and 7-AAD provided a simultaneous measurement of three important parameters of the cell state within the same cell sample: the state of the mitochondrial potential (Δψ), detected by the membrane-penetrating MitoSense Red dye; the expression of phosphatidylserine on the cell surface of apoptotic cells, assessed by the binding of annexin V to externalized phosphatidylserine; and the binding of 7-AAD to DNA in cells in the late stages of apoptosis. Multiparametric evaluation of these indicators of cell viability made it possible to determine the correlation and relationship between oxidation dissipation and phosphorylation with apoptosis.

For data set [2], the system named is Jurkat cells. In words: Cell cycle analysis (propidium iodide, Guava Cell Cycle Reagent). Conditions: compound at CC50, 48 h, control did not exceed 34.2%. As for the experimental part:
The cell cycle was analyzed by propidium iodide staining (Guava® Cell Cycle Reagent 4500-0220). […] The cell pellet was resuspended in 200 μL of flow cytometry staining buffer (PBS without Ca^2+ and Mg^2+, 2.5% FBS). Cells were then seeded in 24-well plates at a density of 15 × 10^5 cells per well, centrifuged at 450× g for 5 min, then fixed with ice-cold 70% ethanol for 24 h at 0 °C. Before staining with propidium iodide, cells were washed with PBS and incubated with 250 µL of cell cycle detection reagent (Millipore) for 40 min at 22 °C in the dark. Samples were analyzed using the NovoCyte Penteon Flow Cytometer System (Agilent, 5301 Stevens Creek Blvd., Santa Clara, CA, USA).

Another data set has as its system U937. In words: Cytotoxicity assay (7-AAD viability, flow cytometry). Particulars: Homo sapiens, U-937, ± standard error of the mean, 95% CI in parenthesis. From the text: (§1) Cells, including Jurkat E6.1 (human leukemic T cell lymphoblasts, catalogue no. 88042803), K562 (human chronic myelogenous leukemia cells, catalogue no. 89121407), U937 (human histiocytic lymphoma cells, catalogue no. 85011440), HL60 (human promyelocytic leukemia cells, catalog no. 98070106), HEK293 (human embryonic kidney cells with adenovirus, catalog no. 85120602), and human lung fibroblasts Ce (catalogue no. 90011883), were purchased from the European Collection of Authenticated Cell Cultures (UK Health Security Agency) and cultured according to standard protocols using sterile techniques. […] Cells were maintained in RPMI 1640 (Jurkat, K562, U937, and HL60) and DME M (fibroblast and HEK293) (Gibco) supplemented with […] glutamine, 10% FBS (Sigma), and 100 units/mL penicillin-streptomycin (Sigma). All types of cells were grown under an atmosphere of 5% CO2 at 37 °C. The cells were subcultured at 2–3-day intervals. Cells were then seeded in 24-well plates at 5 × 10^4 cells per well and incubated overnight. Jurkat, K562, U937, HL60, HEK293, and fibroblast cells were subcultured at 2-day intervals with a seeding density of 1 × 10^5 cells per well in 24-well plates in RPMI with 10% FBS.
(§2) Viability (live/dead) assessment was performed by staining cells with 7-AAD (7-aminoactinomycin D; Biolegend). After treatment, cells were harvested, washed 1–2 times with phosphate-buffered saline (PBS), and centrifuged at 400× g for 5 min. Cell pellets were resuspended in 200 µL of flow cytometry staining buffer (PBS without Ca^2+ and Mg^2+, 2.5% FBS) and stained with […] of 7-AAD staining solution for 15 min at room temperature in the dark. Samples were assessed using the NovoCyte Penteon Flow Cytometer System (Agilent, 5301 Stevens Creek Blvd., Santa Clara, CA, USA). Detection of 7-AAD emission was collected through a 675/30 nm filter in the FL4 channel.
On the technique in general: Flow cytometry measures light scatter and fluorescence of single cells or particles in a stream.

Experiment in data set [3]: as above
Particulars: human; Hek293, conditionally normal line; ± standard error of the mean, 95% CI in parenthesis.
Source text: as §1, §2

The test system of the next data set is Jurkat. The description is as above. Conditions: Homo sapiens, ± standard error of the mean, 95% CI in parenthesis.
Source text: as §1, §2

For the next data set, the system named is K562. The data set is described as above. Conditions: Homo sapiens, ± standard error of the mean, 95% CI in parenthesis.
Source text: as §1, §2

Another data set relates to HL60. The description is as above. Conditions: Homo sapiens, HL-60, ± standard error of the mean, 95% CI in parenthesis.
Source text: as §1, §2

Experiment in data set [4]: as above
Particulars: human; normal fibroblasts; ± standard error of the mean, 95% CI in parenthesis.

Data set [5] deals with Jurkat cells. The data set can be described thus: Assessment of autophagy (anti-LC3/FITC, flow cytometry). Particulars: 0.5 CC50, 48 h. From the text:
Autophagy is involved in various physiological processes and its changes are associated with the pathogenesis of diseases such as neurodegenerative diseases, cardiovascular complications, cancer, and infectious diseases, as well as with physiological processes such as innate and specific immunity, pathogen clearance, lymphocyte selection, antigen presentation, and production of immunoglobulins. Therefore, the determination of LC3 protein inside autophagosomes without the cytosolic form of LC3-I at the stage of selective cell permeability was measured using flow cytometry. Thus, using the FlowCellect™ LC3-GFP Reporter Autophagy Assay Kit (FCCH100170 and FCCH100181), flow cytometry allowed for a rapid assay that could be combined with other phenotypic and functional markers to characterize different cell populations.
Canonical autophagy is associated with the conversion of LC3 protein (an autophagosome marker) from the cytoplasmic form of LC3I to the lipid-bound form of LC3II, which is associated with the membranes of maturing autophagosomes. The autophagy process can be conveniently classified into several stages. First, induction and translocation of the cytoplasmic LC3 protein occur due to the influence of external stimuli (adverse environmental influences)—the process is initiated by external/internal stimuli (for example, nutrient depletion or hypoxia). Then, the formation of autophagosomes begins, which are double-membrane vesicles that include the LC3 protein. This protein regulates the fusion of autophagosomes and lysosomes. It exists in two fractions—cytoplasmic LC3-I and LC3-II, isolated in the autophagosomal membrane. The LC3-II protein fraction was specified in our work, as its detection is a reliable indicator of the processes of autophagy in the cell.

The subject of data set [6] is Jurkat cells. In words: Oxidative stress and early apoptosis (MitoSOX Red and annexin V, MitoStress Kit). Conditions: compound at CC50, 4 h, MitoSOX Red and annexin V. From the text: Changes in the mitochondrial membrane potential (ΔΨ) in Jurkat cells induced by treatment with the synthesized compounds were detected using MitoSOX Red, a positively charged probe that accumulates rapidly in mitochondria and as such can be used to detect superoxide/ROS production within mitochondria using fluorometry, microscopy, or flow cytometry. Live cells induced a low level of MitoSOX Red fluorescence, while cells with scattered mitochondrial membrane potential caused much higher MitoSOX Red fluorescence. Annexin V is a dye commonly used to detect early signs of apoptosis. […] Thus, using two different dyes, MitoSOX Red and annexin V (CF488A), in the FlowCellect™ MitoStress Kit (FCCH100109), we analyzed the mitochondrial membrane potential dissipation and associated apoptosis in Jurkat cells in response to the synthesized chatenaytrienins.
Therefore, simultaneous detection of mitochondrial superoxide generation (detected by MitoSOX Red membrane-penetrating dye) and expression of phosphatidylserine on the cell surface of apoptotic cells (assessed by binding of annexin V) in the same cell sample provides an accurate evaluation of the ability of the test compound to initiate oxidative stress in cell culture and induce apoptosis.

Take `CCCCCCCCCCCC/C=C\CC/C=C\CC/C=C\CCCCCCCCC1=C[C@H](C)OC1=O` [compound 2, chatenaytrienin-2]: the “cells with cytochrome c released into the cytoplasm (Negative gate)” value with Jurkat tumor cell line turned out to be 33.51%. Moreover, the “cells in late apoptosis (stained with 7-AAD)” value in the data set with Jurkat cells [1] (Jurkat) worked out at 8.44%. In addition, the “Jurkat tumor cells with the Δψ dissipation phenomenon” value with Jurkat cells [1] (MitoSense Red) came out at 67.76%. Moreover, the “percentage of cells in the S-phase” value in the data set with Jurkat cells [2] is listed as ~ 47%. Also, the CC50 was found to be 0.12 ± 0.01 µM with U937; 0.63 ± 0.03 µM in data set [3]; 0.12 ± 0.06 µM in the data set with Jurkat; 0.18 ± 0.05 µM in the data set on K562; 0.13 ± 0.02 µM in the data set on HL60; 0.79 ± 0.02 µM in data set [4]. The “cells with autophagy (gate M3-2)” value with Jurkat cells [5] was 79.96%. Moreover, the “cells demonstrating oxidative stress along with the marker of early apoptosis, annexin” value with Jurkat cells [6] was found to be 11.86%.

For orientation: CC50 means the concentration at which the toxic effect on the cells reaches its halfway point.
